One may read the IC50 as the point on the concentration scale where inhibition reaches its midpoint.

We go through 18 molecules from US20240262826A1, “WILD TYPE KIT INHIBITORS” (Blueprint Medicines Corporation, priority 2022, published 2024).

One series concerns the target wild type c-kit (Homo sapiens (Human), UniProt P10721). Kind of series: PathScan phospho c-kit (Tyr719) sandwich ELISA in SCF-stimulated M-07e cells (pKIT assay). Format: cell-based. The following applies: ELISA assay (values not marked *). The method in brief:
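Tyr719-phosphorylated c-kit was measured by colorimetric (TMB) sandwich ELISA in lysates of M-07e cells. Cells were starved 4 h without serum or GM-CSF, dosed 60 min at 37 °C with compound (8 points, duplicate, 0.25% DMSO), and stimulated 10 min with human SCF (500 ng/mL as added). IC50 values came from 4-parameter logistic regression.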
(ELISA stands for enzyme-linked immunosorbent assay.)

Series [1] deals with human P-glycoprotein (P-gp, MDR1) (Homo sapiens (Human), UniProt P08183). Kind of series: MDCK-MDR1 cell monolayer drug transport assay (P-gp efflux ratio). The class given is in vitro ADME. The following applies: pH 7.4, MDCK-MDR1 cells, 1 uM concentration of compound, read-out: Pgp Efflux Ratio, 1 uM. As for the experimental part: The potential for compounds prepared according to the examples to be substrates of P-gp was evaluated using in vitro on Multidrug Resistance Mutation 1-Mardin-Darby Canine Kidney (MDCK-MDR1)) (Mardin-Darby Canine Kidney) cell monolayers overexpressing P-gp grown on permeable supports.
Preparation for cell seeding: MDCK-MDR1 cell culture medium consisting of Dulbecco's Modified Eagle's Medium (DMEM) with high glucose and L-glutamine supplemented with: 10% FBS, 0.1 mg/mL of streptomycin, 0.6 μg/mL of Kanamycin sulfate and 100 units of penicillin was prepared. 50 μL of culture medium was added to each well of the Transwell insert. The Transwell insert was removed from the reservoir and 25 mL of culture medium was added. After incubation at 37° C., 5% CO2 for 1 hour, the plates were ready for cell seeding. The cells were cultivated in T-75 flasks in a cell culture incubator set at 37° C., 5% CO2, 95% relative humidity until they reached 80-90% confluence before detaching and splitting. The cultivated cells were rinsed in T-75 flasks with 5 mL PBS and aspirated off, and then 1.5 mL trypsin/EDTA was added and incubated at 37° C. for approximately 5 to 10 minutes or until the cells detach and float. The trypsin/EDTA was inactived by adding excess serum containing medium. The cell suspension was transferred to a conical tube and the cells pelleted by centrifugation at 120×g for 10 minutes. The cells were resuspended in seeding medium at a density of 1.56×10^6 cells/mL. This cell concentration was used to seed 5.45×10^5 cells/cm^2.
Seeding and feeding of MDCK-MDR1 cells into transwell plates: 50 μL of the above cell suspension was added to each well of a previously prepared Transwell plate and the plate was incubated for 4-8 days, replacing the medium every other day beginning no sooner than 48 hours after initial plating. The medium must be replaced on the day before conducting the experiment, and the procedure for medium changes was carried out as follows. The plate was removed from the incubator and placed in a hood. The medium was aspirated from a reservoir and each Transwell was inserted. 100 μL of culture medium was added to each well of the Transwell inserts and 25 mL of culture medium to reservoir tray. The plate was returned to the incubator.
Assessment of cell monolayer integrity: When the 4-day cultured MDCK-MDR1 cells reached confluence and were differentiated, the medium was removed from the reservoir and Transwell inserts. 100 μL of prewarmed culture medium was added to each transwell insert and 25 mL was added to the reservoir tray. The electrical resistance across the monolayer was measured using a Millicell Epithelial Volt-Ohm measuring system. The electrical resistance for each well was measured and then the plate was returned to the incubator. TEER values were calculated using this formula: TEER measurement (ohms)×Area of membrane (cm2)=TEER value (ohm cm2). Any monolayer with a TEER value <42 ohms·cm2, indicating poor monolayer formation, was discarded.
Performing the drug transport assay: The MDCK-MDR1 plate was removed from the incubator and the monolayer was washed, exchanging the volume two times using pre-warmed HBSS (Hank's balanced salt solution) (10 mM HEPES, pH 7.4). The plate was then incubated at 37° C. for 30 minutes. A 1 μM compound working solution was prepared as follows: Added […] of stock solution (10 mM in DMSO) of test compound and control compounds (Metoprolol, Prazosin and Imatinib) in one 96 well plate, then added 98 μL of DMSO into the same well to obtain 0.2 mM stock solutions (note a stock solution was further diluted 1:10 for eventually making a 0.1 uM compound working solution). Transfered 3 μL of 0.2 mM solution into 597 μL of transport buffer in one 96 well plate to prepare the 1 μM compound working solution. The plate was shaken at 1000 rpm for 10 min.

Sequence of wild type c-kit (P10721 26-976): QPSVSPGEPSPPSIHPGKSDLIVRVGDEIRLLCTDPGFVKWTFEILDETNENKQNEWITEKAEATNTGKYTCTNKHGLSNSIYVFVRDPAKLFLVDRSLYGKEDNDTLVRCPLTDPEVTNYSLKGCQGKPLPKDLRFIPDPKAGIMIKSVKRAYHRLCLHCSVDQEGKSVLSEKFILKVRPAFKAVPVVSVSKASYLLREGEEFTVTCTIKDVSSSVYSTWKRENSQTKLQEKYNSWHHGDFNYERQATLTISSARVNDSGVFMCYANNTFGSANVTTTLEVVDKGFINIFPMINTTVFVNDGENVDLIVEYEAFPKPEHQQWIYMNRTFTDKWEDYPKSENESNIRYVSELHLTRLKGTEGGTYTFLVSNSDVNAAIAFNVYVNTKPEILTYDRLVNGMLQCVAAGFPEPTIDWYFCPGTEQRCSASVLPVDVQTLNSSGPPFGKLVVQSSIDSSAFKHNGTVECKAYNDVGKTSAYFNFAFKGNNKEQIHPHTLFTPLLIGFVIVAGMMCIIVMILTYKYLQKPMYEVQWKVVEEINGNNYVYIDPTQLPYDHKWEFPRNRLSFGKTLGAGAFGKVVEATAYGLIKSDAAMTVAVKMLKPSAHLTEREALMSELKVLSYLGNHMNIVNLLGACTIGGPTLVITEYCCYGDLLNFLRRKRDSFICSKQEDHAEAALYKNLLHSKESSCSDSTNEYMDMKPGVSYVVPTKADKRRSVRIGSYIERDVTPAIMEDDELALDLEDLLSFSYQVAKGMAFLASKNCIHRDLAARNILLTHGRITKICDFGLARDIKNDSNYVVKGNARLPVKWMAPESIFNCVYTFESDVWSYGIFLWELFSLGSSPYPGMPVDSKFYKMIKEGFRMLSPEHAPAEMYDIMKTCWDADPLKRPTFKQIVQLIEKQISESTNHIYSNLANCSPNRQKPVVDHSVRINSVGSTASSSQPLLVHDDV
Sequence of human P-glycoprotein (P-gp, MDR1) (P08183 whole entry): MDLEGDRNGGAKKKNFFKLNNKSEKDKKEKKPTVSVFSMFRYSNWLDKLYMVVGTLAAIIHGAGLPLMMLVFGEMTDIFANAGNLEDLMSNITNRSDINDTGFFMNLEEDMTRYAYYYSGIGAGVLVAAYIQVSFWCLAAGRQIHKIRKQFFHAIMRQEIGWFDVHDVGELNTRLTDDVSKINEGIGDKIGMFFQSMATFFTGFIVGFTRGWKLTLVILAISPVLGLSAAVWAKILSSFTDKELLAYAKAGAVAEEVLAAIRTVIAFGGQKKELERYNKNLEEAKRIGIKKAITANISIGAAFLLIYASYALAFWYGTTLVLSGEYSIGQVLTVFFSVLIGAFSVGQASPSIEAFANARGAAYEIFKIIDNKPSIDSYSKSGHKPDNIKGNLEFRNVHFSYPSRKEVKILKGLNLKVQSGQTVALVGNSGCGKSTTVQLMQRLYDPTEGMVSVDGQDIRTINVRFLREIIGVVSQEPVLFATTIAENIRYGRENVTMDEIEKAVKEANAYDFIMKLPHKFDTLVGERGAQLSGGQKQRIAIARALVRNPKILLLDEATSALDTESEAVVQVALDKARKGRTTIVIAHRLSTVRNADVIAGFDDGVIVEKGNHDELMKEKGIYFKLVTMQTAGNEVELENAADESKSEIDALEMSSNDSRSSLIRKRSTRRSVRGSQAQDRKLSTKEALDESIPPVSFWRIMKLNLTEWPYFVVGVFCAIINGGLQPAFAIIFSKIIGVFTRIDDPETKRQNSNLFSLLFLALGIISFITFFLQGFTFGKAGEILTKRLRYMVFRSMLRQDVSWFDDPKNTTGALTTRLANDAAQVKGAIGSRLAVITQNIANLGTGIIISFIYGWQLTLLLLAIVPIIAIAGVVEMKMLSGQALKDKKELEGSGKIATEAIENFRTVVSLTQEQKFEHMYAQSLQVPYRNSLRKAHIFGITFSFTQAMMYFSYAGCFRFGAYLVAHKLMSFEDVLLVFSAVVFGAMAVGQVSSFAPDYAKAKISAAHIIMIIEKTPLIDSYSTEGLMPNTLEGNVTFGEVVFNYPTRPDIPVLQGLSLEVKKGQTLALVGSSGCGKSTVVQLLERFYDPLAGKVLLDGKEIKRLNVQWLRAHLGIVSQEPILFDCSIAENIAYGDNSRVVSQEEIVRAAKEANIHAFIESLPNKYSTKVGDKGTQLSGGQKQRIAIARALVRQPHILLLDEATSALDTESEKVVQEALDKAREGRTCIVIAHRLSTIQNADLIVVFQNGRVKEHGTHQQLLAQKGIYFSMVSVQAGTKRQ

Consider `COC(=O)N1CC(n2nnc(-c3ccc(C)c(NC(=O)c4cnn5ccc(N6CC[C@H]6CO)cc45)c3)n2)C1` [Example 90, methyl (S)-3-(5-(3-(5-(2-(hydroxymethyl)azetidin-1-yl)pyrazolo[1,5-a]pyridine-3-carboxamido)-4-methylphenyl)-2H-tetrazol-2-yl)azetidine-1-carboxylate], for which, on wild type c-kit, the IC50 amounted to 87.7 nM. Also, in series [1], the efflux ratio at 2 h, 1 µM turned out to be 33.9.

In turn, `COC(=O)N1CC(n2nnc(-c3ccc(C)c(NC(=O)c4cnn5ccc(N6CC[C@@H](N(C)C)C6)cc45)c3)n2)C1` [Example 97, methyl (R)-3-(5-(3-(5-(3-(dimethylamino)pyrrolidin-1-yl)pyrazolo[1,5-a]pyridine-3-carboxamido)-4-methylphenyl)-2H-tetrazol-2-yl)azetidine-1-carboxylate] gave an IC50 against wild type c-kit of 112 nM. The efflux ratio at 2 h, 1 µM in series [1] is 23.2.

The molecule `Cc1ccc(-c2nnn(C3CC3)n2)cc1NC(=O)c1cnn2ccc(-c3c(C)nn(CCO)c3C)cc12` [Example 208, N-(5-(2-cyclopropyl-2H-tetrazol-5-yl)-2-methylphenyl)-5-(1-(2-hydroxyethyl)-3,5-dimethyl-1H-pyrazol-4-yl)pyrazolo[1,5-a]pyridine-3-carboxamide] showed an IC50 at wild type c-kit of 0.4 nM. In series [1], the efflux ratio at 2 h, 1 µM turned out to be 4.1.

For the molecule `COC(=O)N1CC(n2nnc(-c3ccc(C)c(NC(=O)c4cnn5ccc(NC[C@H](C)O)cc45)c3)n2)C1` [Example 94, methyl (S)-3-(5-(3-(5-((2-hydroxypropyl)amino)pyrazolo[1,5-a]pyridine-3-carboxamido)-4-methylphenyl)-2H-tetrazol-2-yl)azetidine-1-carboxylate], on wild type c-kit, the IC50 stood at 131 nM. Besides, the efflux ratio at 2 h, 1 µM in series [1] came out at 22.3.

The molecule `Cc1cc(Cl)c(-c2nnn(C3CC(F)(F)C3)n2)cc1NC(=O)c1cnn2ccc(N3CCOCC3)cc12` [Example 168, N-(4-chloro-5-(2-(3,3-difluorocyclobutyl)-2H-tetrazol-5-yl)-2-methylphenyl)-5-morpholinopyrazolo[1,5-a]pyridine-3-carboxamide] registered an IC50 at wild type c-kit of 9.2 nM. In addition, in series [1], the efflux ratio at 2 h, 1 µM was determined as 3.2.

As for `Cc1cnn(-c2ccc(C)c(NC(=O)c3cnn4ccc(-c5cnn(C[C@H]6CNCCO6)c5)cc34)c2)n1` [Example 205, (R)—N-(2-methyl-5-(4-methyl-2H-1,2,3-triazol-2-yl)phenyl)-5-(1-(morpholin-2-ylmethyl)-1H-pyrazol-4-yl)pyrazolo[1,5-a]pyridine-3-carboxamide], the efflux ratio at 2 h, 1 µM in series [1] amounted to 33.1.

On to `Cc1nn(C[C@H]2CN(C)CCO2)c(C)c1-c1ccn2ncc(C(=O)Nc3cc(-c4nnn(C5CC5)n4)ccc3Cl)c2c1` [Example 274, (R)-N-(2-chloro-5-(2-cyclopropyl-2H-tetrazol-5-yl)phenyl)-5-(3,5-dimethyl-1-((4-methylmorpholin-2-yl)methyl)-1H-pyrazol-4-yl)pyrazolo[1,5-a]pyridine-3-carboxamide], for which the IC50 against wild type c-kit turned out to be 0.6 nM. The efflux ratio at 2 h, 1 µM in series [1] is 1.7.

`CCOC(=O)N1CC(n2nnc(-c3ccc(C)c(NC(=O)c4cnn5ccc(NCCOC)cc45)c3)n2)C1` [Example 149, ethyl 3-(5-(3-(5-((2-methoxyethyl)amino)pyrazolo[1,5-a]pyridine-3-carboxamido)-4-methylphenyl)-2H-tetrazol-2-yl)azetidine-1-carboxylate] registered an IC50 at wild type c-kit of 38.6 nM. For the same molecule, the efflux ratio at 2 h, 1 µM in series [1] came out at 30.1.

For the molecule `Cc1ccc(-c2nnn(CCOCC(F)(F)F)n2)cc1NC(=O)c1cnn2ccc(-c3cn[nH]c3)cc12` [Example 197, N-(2-methyl-5-(2-(2-(2,2,2-trifluoroethoxy)ethyl)-2H-tetrazol-5-yl)phenyl)-5-(1H-pyrazol-4-yl)pyrazolo[1,5-a]pyridine-3-carboxamide], in series [1], the efflux ratio at 2 h, 1 µM is 41.

At wild type c-kit, `O=C(Nc1cc(-c2nnn(CC3CC3)n2)ccc1Cl)c1cnn2ccccc12` [Example 15, N-(2-chloro-5-(2-(cyclopropylmethyl)-2H-tetrazol-5-yl)phenyl)pyrazolo[1,5-a]pyridine-3-carboxamide] had an IC50 of 4.2 nM.

`CNc1ccn2ncc(C(=O)Nc3cc(-n4ncc(C5CN(C(=O)OC)C5)n4)ccc3C)c2c1` [Example 138, methyl 3-(2-(4-methyl-3-(5-(methylamino)pyrazolo[1,5-a]pyridine-3-carboxamido)phenyl)-2H-1,2,3-triazol-4-yl)azetidine-1-carboxylate]: the IC50 on wild type c-kit was determined as 13.4 nM.

For `COCCNc1ccn2ncc(C(=O)Nc3cc(-c4nnn(C[C@H]5CC5(F)F)n4)ccc3C)c2c1` (single isomer, unassigned) [Example 124, (R)-N-(5-(2-((2,2-difluorocyclopropyl)methyl)-2H-tetrazol-5-yl)-2-methylphenyl)-5-((2-methoxyethyl)amino)pyrazolo[1,5-a]pyridine-3-carboxamide or (S)-N-(5-(2-((2,2-difluorocyclopropyl)methyl)-2H-tetrazol-5-yl)-2-methylphenyl)-5-((2-methoxyethyl)amino)pyrazolo[1,5-a]pyridine-3-carboxamide], the IC50 at wild type c-kit amounted to 1.8 nM.

Regarding `COCCNc1ccn2ncc(C(=O)Nc3cc(-n4nnc(C5CN(C(=O)OC)C5)n4)ccc3C)c2c1` [Example 125, methyl 3-(2-(3-(5-((2-methoxyethyl)amino)pyrazolo[1,5-a]pyridine-3-carboxamido)-4-methylphenyl)-2H-tetrazol-5-yl)azetidine-1-carboxylate], the midpoint of inhibition at wild type c-kit, the IC50, lay at 7.2 nM.

At wild type c-kit, `COC(=O)N1CC(n2nnc(-c3ccc(C)c(NC(=O)c4cnn5ccc(N[C@@H]6CCOC6)cc45)c3)n2)C1` [Example 129, methyl (R)-3-(5-(4-methyl-3-(5-((tetrahydrofuran-3-yl)amino)pyrazolo[1,5-a]pyridine-3-carboxamido)phenyl)-2H-tetrazol-2-yl)azetidine-1-carboxylate] returned an IC50 of 29.6 nM.

Regarding `COC(=O)N1CC(n2nnc(-c3ccc(C)c(NC(=O)c4cnn5ccc(N6CCN7CCC[C@@H]7C6)cc45)c3)n2)C1` [Example 75, methyl (R)-3-(5-(3-(5-(hexahydropyrrolo[1,2-a]pyrazin-2(1H)-yl)pyrazolo[1,5-a]pyridine-3-carboxamido)-4-methylphenyl)-2H-tetrazol-2-yl)azetidine-1-carboxylate], on wild type c-kit, the half-inhibitory concentration (IC50) stood at 9.6 nM.

In turn, `O=C(Nc1cc(-c2nnn(CC3CC3(F)F)n2)ccc1Cl)c1cnn2ccccc12` (stereo not shown) [Example 16, N-(2-chloro-5-(2-((2,2-difluorocyclopropyl)methyl)-2H-tetrazol-5-yl)phenyl)pyrazolo[1,5-a]pyridine-3-carboxamide] displayed an IC50 against wild type c-kit of 2.3 nM.

In turn, `COC(=O)N1CC(n2nnc(-c3cc(NC(=O)c4cnn5cc(OCCO)ccc45)c(C)cc3F)n2)C1` [Example 223, methyl 3-(5-(2-fluoro-5-(6-(2-hydroxyethoxy)pyrazolo[1,5-a]pyridine-3-carboxamido)-4-methylphenyl)-2H-tetrazol-2-yl)azetidine-1-carboxylate] displayed an IC50 on wild type c-kit of 23.4 nM.

In the case of `Cc1cc(Cl)c(NC(=O)c2cnn3ccc(N4CCOCC4)cc23)cc1-c1nnn(C2CC(F)(F)C2)n1` [Example 170, N-(2-chloro-5-(2-(3,3-difluorocyclobutyl)-2H-tetrazol-5-yl)-4-methylphenyl)-5-morpholinopyrazolo[1,5-a]pyridine-3-carboxamide], 6.3 nM corresponded to half-maximal inhibition on wild type c-kit (IC50).
